How the values were obtained:
hERG channel protein [1] = biological target: T1, hERG channel protein (Homo sapiens, UniProt Q12809); assay: hERG patch clamp test in HEK-293 cells overexpressing hERG; type: cell-based; settings: at 10 μM
T1 construct: expressed in transfected cells; host or cells: HEK-293
Description: (§1) In order to evaluate the possibility of inducing cardiotoxicity of the compound of Example 1 of the present invention in vivo, the inhibitory potential to the hERG (human ether-a-go-go related gene) K^+ channel protein, known as a main cause of arrhythmias, was tested.
Next, in order to evaluate the activity of the hERG channel protein using an electrophysiological method, a patch clamp test was performed. The activity of the hERG channel protein was measured using the HEK-293 cell line overexpressing the hERG channel protein. The cells were acclimatized and cultured in a humidified 37° C. 5% CO2 incubator, washed with PBS (phosphate buffer solution) at the time of growth that occupies 70-80% of the culture dish every 2-3 days, and then subcultured by treating with Trypsin-EDTA. For the test, 2×10^5 cells were aliquoted in a 60 mm cell culture dish, and then cultured in a humidified 5% CO2 incubator for 48 hours. The cultured cells were detached by treating Trypsin-EDTA (Gibco, USA), and the flow of K^+ by the hERG channel protein was measured by applying an automated patch clamp equipment (PatchXpress, Molecular Device).

[2] = test system: artificial corneal tissue; assay: Ocular toxicity test on artificial cornea (MTT); type: cell-based; settings: up to 50 μM, the maximum concentration
Description: In order to evaluate the ocular toxicity that may be induced upon ocular exposure of the compound of Example 1 of the present invention, the following experiment was performed using the cultured artificial cornea.
The artificial corneal tissue cultured in agarose medium was transferred to a 12-well cell culture plate, to which culture medium was added, followed by culture in a humidified 37° C. 5% CO2 incubator for one day. The medium on the artificial cornea culture surface was eliminated, and 30 μl of the compound of Example 1 of the present invention diluted with PBS was evenly applied to the cornea surface, followed by incubation at room temperature for 30 minutes. The cell surface was washed twice with 10 ml of PBS, and a fresh culture medium was added, followed by incubation in a humidified 37° C. 5% CO2 incubator for 30 minutes. In order to measure the viability of the cornea, the artificial cornea was transferred to a 12-well plate containing 2 ml of MTT solution (1 mg/ml), followed by culture for 3 hours. The stained artificial corneal tissue was taken and transferred to a tube containing 1.5 ml of isopropanol, and then incubated with shaking to decolorize. The solution was centrifuged at 13,000 rpm for 5 minutes, 100 μl of the supernatant was transferred to each well of a 96-well plate, and absorbance was measured at 570 nm.

zebrafish = assay: Fatty liver inhibitory effect in tamoxifen-treated zebrafish juvenile fish (LipidGreen2 staining); type: in vivo
Description: In order to evaluate the inhibitory efficacy of the novel isoquinoline derivative of the present invention on fatty liver, an experiment was performed as follows using LipidGreen2 staining reagent capable of staining lipid droplets.
Particularly, the zebrafish used in this Experimental Example were juvenile fish 5 days after fertilization. Healthy juvenile fish were placed in a 24-well plate (10/well), and 1 ml of egg water was added to each well of the plate. As a negative control that could not regulate fatty liver, DMSO diluted at 0.4% was exposed to juvenile fish, and tamoxifen (Sigma-Aldrich, T5648) diluted at 5 μM was exposed to juvenile fish to control […] fatty liver. In order to investigate the fatty liver inhibitory efficacy of the compound of Example 1 of the present invention, the compound (0.5 μM, 1 μM and 5 μM) was mixed with 5 μM tamoxifen and exposed to juvenile fish (final volume of each well: 2 ml). The 24-well plate containing the compound was wrapped in foil to block light, and then incubated in a 28° C. incubator for 22 hours. The plate was washed with egg water 3 times for 5 minutes to remove the compound from each well. For fat-specific staining, LipidGreen2 diluted at 5 μM was exposed to juvenile fish for 30 minutes, and then washed 3 times with egg water for 5 minutes. To evaluate the fatty liver of zebrafish juvenile fish, the developing embryo was anesthetized with Tricaine (4 g/L), and then photographed on 3% methyl cellulose. As the equipment for photographing the developing embryo, a LEICA MZ10F fluorescence microscope, a LEICA DFC425 camera, and Leica Application Suite software (v4.5) were used. For the fluorescence wavelength, a GFP Plants filter set (Excitation 470/40 nm, Emission 525/50 nm) was used. To quantify the liver area and the degree of fat staining of juvenile fish on the image, the area and the fluorescence intensity of the liver part of each image were quantified using ImageJ 1.50i software (National Institutes of Health, USA) and converted into heatmap images.

hERG channel protein [3] = biological target: T1, hERG channel protein; assay: hERG ligand binding test (fluorescence polarization); settings: at 10 μM
Description: as §1
First, a ligand binding test was performed to evaluate the binding force of the compound of Example 1 binding to the hERG channel protein in vitro. A biological membrane containing the hERG channel protein was aliquoted in a 384-black well plate (10 μl/well) at room temperature, and DMSO, E-4031 (positive control), and the compound of Example 1 prepared to be 4 times the final test concentration were added thereto (5 μl/well). A tracer material with a fluorescent material attached to astemizole, known as a selective binding substance to the hERG channel protein, was dispensed into a mixture of the two solutions (5 μl/well), and then incubated for 2 hours at room temperature where light was blocked. In order to excite the tracer material included in the reaction solution, the light of 530 nm was irradiated and the light of 585 nm returned back was measured by the polarization method. […] The binding force of the test material to the hERG protein was expressed as the inhibition rate (%) compared to the group treated with DMSO.

T1 sequence (Q12809 whole entry): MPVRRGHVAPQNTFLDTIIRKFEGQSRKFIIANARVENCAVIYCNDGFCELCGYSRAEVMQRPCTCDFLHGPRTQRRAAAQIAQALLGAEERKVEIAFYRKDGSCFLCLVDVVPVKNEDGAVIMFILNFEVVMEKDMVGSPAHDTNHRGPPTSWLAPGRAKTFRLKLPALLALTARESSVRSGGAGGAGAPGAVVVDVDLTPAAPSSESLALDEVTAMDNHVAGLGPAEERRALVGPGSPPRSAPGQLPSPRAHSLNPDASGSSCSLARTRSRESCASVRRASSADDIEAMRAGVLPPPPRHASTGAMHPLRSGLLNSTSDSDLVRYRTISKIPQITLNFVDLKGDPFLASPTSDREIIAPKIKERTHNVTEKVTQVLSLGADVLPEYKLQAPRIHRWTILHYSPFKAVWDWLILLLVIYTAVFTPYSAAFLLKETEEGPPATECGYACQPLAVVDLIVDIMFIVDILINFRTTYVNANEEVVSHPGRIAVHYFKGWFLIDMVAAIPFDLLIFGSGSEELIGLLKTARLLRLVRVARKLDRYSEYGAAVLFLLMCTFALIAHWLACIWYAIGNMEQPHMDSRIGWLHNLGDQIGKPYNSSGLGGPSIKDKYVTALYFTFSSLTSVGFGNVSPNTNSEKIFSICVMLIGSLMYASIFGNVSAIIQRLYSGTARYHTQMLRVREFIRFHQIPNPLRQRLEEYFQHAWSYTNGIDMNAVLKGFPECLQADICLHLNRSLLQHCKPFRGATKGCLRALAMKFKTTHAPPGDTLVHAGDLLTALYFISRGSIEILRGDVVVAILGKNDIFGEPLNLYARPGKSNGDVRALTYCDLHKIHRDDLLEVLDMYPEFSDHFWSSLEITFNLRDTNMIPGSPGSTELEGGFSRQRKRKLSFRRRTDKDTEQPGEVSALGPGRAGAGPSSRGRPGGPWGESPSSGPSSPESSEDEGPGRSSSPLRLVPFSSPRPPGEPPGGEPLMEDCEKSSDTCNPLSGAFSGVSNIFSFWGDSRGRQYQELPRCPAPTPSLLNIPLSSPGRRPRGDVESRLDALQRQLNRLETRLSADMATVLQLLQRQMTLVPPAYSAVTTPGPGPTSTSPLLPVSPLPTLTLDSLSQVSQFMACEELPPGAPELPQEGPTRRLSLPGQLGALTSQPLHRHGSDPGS

## [O-][S+](c1ccc(F)cc1)c1nccc2ccccc12 (stereo not drawn) [Example 1, 1-((4-Fluorophenyl)Sulfinyl)Isoquinoline]
hERG channel protein [1]
  inhibition of the activity of the hERG channel protein: about 10%
[2]
  survival rate of artificial cornea: no significant decrease of the survival rate
zebrafish; 0.5, 1 and 5 μM mixed with 5 μM tamoxifen, 22 hours, juvenile fish 5 days after fertilization
  fatty liver (LipidGreen2 fat staining): restored to the normal level
zebrafish; compound mixed with 5 μM tamoxifen, 22 hours (FIG. 8 top)
  liver area: maintained at the liver area level of normal juvenile fish
zebrafish; compound mixed with 5 μM tamoxifen, compared to tamoxifen group (FIG. 8 bottom)
  fluorescence intensity of liver (LipidGreen2): decreased to the normal level
hERG channel protein [3]
  inhibition of the binding of the hERG channel protein: about 10%

From patent US11878013B2, “Isoquinoline derivative, preparing method thereof, and pharmaceutical composition for preventing or treating autophagy related diseases containing the same as an active ingredient” (Korea Research Institute of Chemical Technology, priority 2021, dated 2024)
